Results: US20230151432A1, “KIF18A INHIBITORS FOR TREATMENT OF NEOPLASTIC DISEASES” (AMGEN INC., priority 2020, published 2023)

How the values were obtained:
[1] = tested on: human OVCAR-3 HGSOC xenograft model (TP53MUT, CCNE1AMP); assay: OVCAR-3 xenograft efficacy study, oral dosing (Example 3); type: in vivo, mouse; details: for tumor regression: day 25 to day 45
Description: Female athymic nude mice were injected with 5×10^6 cells in 0.1 mL subcutaneously in the right flank. After tumors were established (average tumor volume of 150 mm^3), animals were randomized into 4 treatment groups (vehicle alone, KIF18A inhibitor at 10, 30, or 100 mg/kg) with 10 animals per group and treated orally once per day (PO, QD) starting on day 25 post-tumor implantation. Tumor measurement was calculated from the length, width and height of tumors measured with a PRO-MAX electronic digital caliper (Japan Micrometer Mfg. Co. LTD). The tumor volume was calculated as [L×W×H] and expressed in mm^3. Tumor volume and animal body weight measurements were determined twice per week (study start day 25, study end day 45). A single mouse was removed from the study (KIF18A inhibitor 30 mg/kg group) due to abdominal distention, a finding likely unrelated to compound.
Tumor Growth Inhibition (TGI) and Tumor Regression formulas.
Data was plotted using GraphPad Prism software (V7.0.4), tumor volume and body weight data are expressed as means plus or minus standard error of the mean and plotted as a function of time. Statistical significance of observed differences between growth curves were calculated using SLACR package (v.1.0.3). Statistical significance for tumor regressions were performed by paired Student's t-Test on the initial and final tumor volumes with significant tumor regression p-values (***p≤0.0001) for all three KIF18A inhibitor treatment groups. KIF18A inhibitor dose 10 mg/kg (81% regression, 5 of 10 tumor-free), 30 mg/kg (98% regression, 8 of 9 tumor-free), and 100 mg/kg (97% regression, 7 of 10 tumor-free).

[2] = tested on: five KIF18A inhibitor-sensitive cancer cell lines; assay: 6-day cell growth assay with re-plating in drug-free media; type: cell-based, human
Description: To better understand the durability of response after KIF18A inhibitor treatment, all five KIF18A inhibitor-sensitive cancer cell lines were treated with DMSO or Compound C11 in a 6-day cell growth assay, where the surviving cells were washed, collected, counted, and re-plated in drug-free growth media and cultured for additional 7 to 9 days. MCF-7 cells treated with a CDK 4/6 inhibitor was included as a cytostatic comparator.

Row | SMILES | tumor-free animals ([1]; 10 mg/kg PO QD) | tumor regression ([1]; 10 mg/kg PO QD) [%] | tumor-free animals ([1]; 30 mg/kg PO QD) | tumor regression ([1]; 30 mg/kg PO QD) [%] | tumor-free animals ([1]; 100 mg/kg PO QD) | tumor regression ([1]; 100 mg/kg PO QD) [%] | durable tumor regressions and cures, share of the animals ([1]; tumor re-growth assessment after cessation of treatment) [%] | cell growth and colony formation ([2]; 6-day treatment) | cell growth potential after drug withdrawal relative to DMSO control ([2]; re-plated in drug-free media, additional 7 to 9 days)
1 | Cc1cc(NC(=O)c2ccc(NS(=O)(=O)CCO)cc2N2CCC3(CC2)CC3)nc(N2CCC(F)(F)CC2)n1 [Compound C14, N-(2-(4,4-Difluoropiperidin-1-yl)-6-methylpyrimidin-4-yl)-4-((2-hydroxyethyl)sulfonamido)-2-(6-azaspiro[2.5]octan-6-yl)benzamide] | 5 of 10 | 81 | 8 of 9 | 98 | 7 of 10 | 97 | ≥ 50 | – | –
2 | CC(C)(CO)Nc1ccc(C(=O)Nc2cccc(S(=O)(=O)C3CCCC3)c2)c(N2CCC3(CC2)CC3)n1 [Compound C11, N-(3-(cyclopentylsulfonyl)phenyl)-6-((1-hydroxy-2-methylpropan-2-yl)amino)-2-(6-azaspiro[2.5]octan-6-yl)nicotinamide] | – | – | – | – | – | – | – | significant decrease in cell growth and colony formation | marked reduction cell growth potential
